Assay results published in patent publication US20110183969A1, “ANTIFUNGAL COMBINATION THERAPY” (priority 2008, published 2011).
Converted amounts (≈) assume the structure as drawn. Read-outs that look alike come from different tables or passages of the source.

How the values were obtained:
Experiment in all cases: MIC (YAG medium)
Type in all cases: cell-based
Aspergillus flavus = details: for MIC: Aspergillus flavus, read-out: MIC A. flavus (grade)
Outline: (§1)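 OD 485 nm read-out after 24 h, 35° C; MIC = lowest concentration inhibiting growth >70% vs drug-free control, in mg/L. Medium YAG (1% glucose, 1% NH4Cl, 0.5% yeast extract); inoculum 1-2×10^4 cfu/mL; compound range 50-0.05 mg/L, repeated at 0.5-0.0005 mg/L […].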

[1] = tested on: Aspergillus fumigatus AF210; details: for MIC: Aspergillus fumigatus
Outline: as §1

[2] = tested on: Aspergillus fumigatus AF293; details: for MIC: Aspergillus fumigatus
Outline: as §1

Aspergillus niger = details: for MIC: Aspergillus niger, read-out: MIC A. niger (grade)
Outline: as §1

Aspergillus terreus AT49 = details: for MIC: Aspergillus terreus
Outline: as §1

Aspergillus terreus AT4 = details: for MIC: Aspergillus terreus
Outline: as §1

[3] = AF210, read-out: MIC A. fumigatus 210 (grade)
[4] = AF293, read-out: MIC A. fumigatus (grade)
[5] = AT49, read-out: MIC A. terreus 49 (grade)
[6] = AT4, read-out: MIC A. terreus (grade)
[7] = YAG medium, MIC banded into grades
[8] = YAG medium, MIC banded into grades, AF210, read-out: MIC A. fumigatus 210 (grade)
[9] = YAG medium, MIC banded into grades, AF293, read-out: MIC A. fumigatus (grade)
[10] = YAG medium, MIC banded into grades, AT49, read-out: MIC A. terreus 49 (grade)
[11] = YAG medium, MIC banded into grades, AT4, read-out: MIC A. terreus (grade)
[12] = YAG medium, MIC banded into grades, AF210
[13] = YAG medium, MIC banded into grades, AF293
[14] = YAG medium, MIC banded into grades, AT49
[15] = YAG medium, MIC banded into grades, AT4

Row | Compound | MIC (Aspergillus flavus; [7]) [µg/mL] | MIC [1, 8] [µg/mL] | MIC [2, 9] [µg/mL] | MIC (Aspergillus niger; [7]) [µg/mL] | MIC (Aspergillus terreus AT49; [10]) [µg/mL] | MIC (Aspergillus terreus AT4; [11]) [µg/mL] | other results
1 | O=C1Cc2cc(NC(=O)C(=O)c3c(-c4ccccc4)cc4ccccn34)ccc2N1 [Example 9, 2-Oxo-N-(2-oxo-2,3-dihydro-1H-indol-5-yl)-2-(2-phenyl-indolizin-3-yl)-acetamide] |  |  |  |  |  |  | MIC (Aspergillus flavus): > 10 µg/mL; MIC [1, 3]: > 10 µg/mL; MIC [2, 4]: > 10 µg/mL; MIC (Aspergillus niger): > 10 µg/mL; MIC (Aspergillus terreus AT49; [5]): > 10 µg/mL; MIC (Aspergillus terreus AT4; [6]): > 10 µg/mL
2 | Cc1c(-c2ccccc2)c2ccccn2c1C(=O)C(=O)Nc1ccc(N2CCOCC2)cc1 [Example 7, 2-(2-methyl-1-phenyl-indolizin-3-yl)-N-(4-morpholin-4-yl-phenyl)-2-oxo-acetamide] | > 10 | > 10 | > 10 | > 10 | > 10 | > 10 | 
3 | O=C(Nc1ccc(N2CCN(c3cc(OCCO)ccn3)CC2)cc1)C(=O)c1c(-c2ccccc2)cc2ccccn12 [Example 89, N-(4-{4-[4-(2-Hydroxy-ethoxy)-pyridin-2-yl]-piperazin-1-yl}-phenyl)-2-oxo-2-(2-phenyl-indolizin-3-yl)-acetamide] | < 1 | 1 to 10 (≈ 1.78 to 17.8 µM) | 1 to 10 (≈ 1.78 to 17.8 µM) | 1 to 10 (≈ 1.78 to 17.8 µM) | < 1 | 1 to 10 (≈ 1.78 to 17.8 µM) | 
4 | O=C(Nc1ccc(N2CCC(N3CCOCC3)CC2)cc1)C(=O)c1c(-c2ccccc2Cl)cc2ccccn12 [Example 26, 2-[2-(2-Chloro-phenyl)-indolizin-3-yl]-N-[4-(4-morpholin-4-yl-piperidin-1-yl)-phenyl]-2-oxo-acetamide] | < 1 | < 1 | 1 to 10 (≈ 1.84 to 18.4 µM) | 1 to 10 (≈ 1.84 to 18.4 µM) | < 1 | 1 to 10 (≈ 1.84 to 18.4 µM) | 
5 | COCc1cc(NC(=O)C(=O)c2c(-c3ccccc3)cc3ccccn23)ccc1N1CCN(c2cc(C)cc(C)n2)CC1 [Example 81, N-{4-[4-(4,6-Dimethyl-pyridin-2-yl)-piperazin-1-yl]-3-methoxymethyl-phenyl}-2-oxo-2-(2-phenyl-indolizin-3-yl)-acetamide] | < 1 | < 1 | < 1 | < 1 | < 1 | < 1 | 
6 | N-{4-[4-(2,6-Dimethyl-pyrimidin-4-yl)-piperazin-1-yl]-phenyl}-2-(2-phenyl-indolizin-3-yl)-acetamide [Example 45] |  |  |  |  |  |  | MIC A. flavus (grade) (Aspergillus flavus; [7]): 3 (A grade of 3 represents an MIC of less than 1 mg/L); MIC A. fumigatus 210 (grade) [1, 12]: 3 (A grade of 3 represents an MIC of less than 1 mg/L); MIC A. fumigatus (grade) [2, 13]: 3 (A grade of 3 represents an MIC of less than 1 mg/L); MIC A. niger (grade) (Aspergillus niger; [7]): 2 (A grade of 2 represents an MIC of from 1 to 10); MIC A. terreus 49 (grade) (Aspergillus terreus AT49; [14]): 3 (A grade of 3 represents an MIC of less than 1 mg/L); MIC A. terreus (grade) (Aspergillus terreus AT4; [15]): 3 (A grade of 3 represents an MIC of less than 1 mg/L)
7 | CCN(CC)C(=O)Oc1cc(-c2ccc(NC(=O)C(=O)c3c(-c4ccccc4)cc4ccccn34)cc2)on1 [Example 27, Diethyl-carbamic acid-5-{4-[2-oxo-2-(2-phenyl-indolizin-3-yl)-acetylamino]-phenyl}-isoxazol-3-yl ester] |  |  |  |  |  |  | MIC (Aspergillus flavus): < 1 µg/mL; MIC [1, 3]: < 1 µg/mL; MIC [2, 4]: < 1 µg/mL; MIC (Aspergillus niger): < 1 µg/mL; MIC (Aspergillus terreus AT49; [5]): < 1 µg/mL; MIC (Aspergillus terreus AT4; [6]): < 1 µg/mL
8 | Cc1ccc(N2CCN(c3ccc(NC(=O)C(=O)c4c(-c5ccccc5)cc5ccccn45)cc3)CC2)nc1 [Example 74, N-{4-[4-(5-Methyl-pyridin-2-yl)-piperazin-1-yl]-phenyl}-2-oxo-2-(2-phenyl-indolizin-3-yl)-acetamide] | < 1 | < 1 | < 1 | < 1 | < 1 | < 1 | 
9 | Cc1nccn1CCCOc1ccc(NC(=O)C(=O)c2c(-c3ccccc3)cc3ccccn23)cc1C(C)C [Example 20, N-{3-Isopropyl-4-[3-(2-methyl-imidazol-1-yl)-propoxy]-phenyl}-2-oxo-2-(2-phenyl-indolizin-3-yl)-acetamide] | < 1 | 1 to 10 (≈ 1.92 to 19.2 µM) | 1 to 10 (≈ 1.92 to 19.2 µM) | > 10 | < 1 | 1 to 10 (≈ 1.92 to 19.2 µM) | 
10 | C=C(C)CN1CCN(c2ccc(NC(=O)C(=O)c3c(-c4ccc(N5CCOCC5)cc4)cc4ccccn34)cc2)CC1 [Example 40, N-{4-[4-(2-Methyl-allyl)-piperazin-1-yl]-phenyl}-2-[2-(4-morpholin-4-yl-phenyl)-indolizin-3-yl]-2-oxo-acetamide] | 1 to 10 (≈ 1.77 to 17.7 µM) | > 10 | > 10 | > 10 | > 10 | > 10 | 
11 | COCCOCCOc1cc(C)nc(N2CCN(c3ccc(NC(=O)C(=O)c4c(-c5ccccc5)cc5ccccn45)cc3)CC2)c1 [Example 76, N-[4-(4-{4-[2-(2-methoxy-ethoxy)-ethoxy]-6-methyl-pyridin-2-yl}-piperazin-1-yl)-phenyl]-2-oxo-2-(2-phenyl-indolizin-3-yl)-acetamide] | < 1 | < 1 | < 1 | < 1 | < 1 | < 1 | 
12 | O=C(Nc1ccc(N2CCN(CC3CCOCC3)CC2)cc1)C(=O)c1c(-c2ccccc2)cc2ccc(F)cn12 [Example 53, 2-(6-Fluoro-2-phenyl-indolizin-3-yl)-2-oxo-N-{4-[4-(tetrahydro-pyran-4-ylmethyl)-piperazin-1-yl]-phenyl}-acetamide] | 1 to 10 (≈ 1.85 to 18.5 µM) | 1 to 10 (≈ 1.85 to 18.5 µM) | 1 to 10 (≈ 1.85 to 18.5 µM) | > 10 | 1 to 10 (≈ 1.85 to 18.5 µM) | 1 to 10 (≈ 1.85 to 18.5 µM) | 
13 | O=C(Nc1ccc(N2CCN(CCc3ccco3)CC2)cc1)C(=O)c1c(-c2ccccc2)cc2ccccn12 [Example 39, N-{4-[4-(2-Furan-2-yl-ethyl)-piperazin-1-yl]-phenyl}-2-oxo-2-(2-phenyl-indolizin-3-yl)-acetamide] | < 1 | < 1 | < 1 | < 1 | < 1 | < 1 | 
14 | Cc1cc(C)nc(N2CCN(c3ccc(NC(=O)C(=O)c4c(-c5ccccc5)cc5ccccn45)cc3)CC2)n1 [Example 44, N-{4-[4-(4,6-Dimethyl-pyrimidin-2-yl)-piperazin-1-yl]-phenyl}-2-oxo-2-(2-phenyl-indolizin-3-yl)-acetamide] | < 1 | < 1 | < 1 | < 1 | < 1 | < 1 | 
15 | CC(C)c1nccn1CCOC(=O)C(C)(C)c1cccc(NC(=O)C(=O)c2c(-c3ccccc3)cc3ccccn23)c1 [Example 22, 2-Methyl-2-{3-[2-oxo-2-(2-phenyl-indolizin-3-yl)-acetylamino]-phenyl}-propionic acid 2-(2-isopropyl-imidazol-1-yl)-ethyl ester] | 1 to 10 (≈ 1.78 to 17.8 µM) | > 10 | > 10 | > 10 | 1 to 10 (≈ 1.78 to 17.8 µM) | 1 to 10 (≈ 1.78 to 17.8 µM) | 
16 | O=C(Nc1ccc(N2CCN(Cc3ccco3)CC2)cn1)C(=O)c1c(-c2ccccc2)cc2ccccn12 [Example 34, N-[5-(2-Furan-2-yl-methyl-piperazin-yl)-peridin-2-yl]-2-oxo-2-(2-phenylindolizin-3-yl)-acetamide] |  |  |  |  |  |  | MIC A. flavus (grade) (Aspergillus flavus; [7]): 3 (A grade of 3 represents an MIC of less than 1 mg/L); MIC A. fumigatus 210 (grade) [1, 12]: 3 (A grade of 3 represents an MIC of less than 1 mg/L); MIC A. fumigatus (grade) [2, 13]: 3 (A grade of 3 represents an MIC of less than 1 mg/L); MIC A. niger (grade) (Aspergillus niger; [7]): 3 (A grade of 3 represents an MIC of less than 1 mg/L); MIC A. terreus 49 (grade) (Aspergillus terreus AT49; [14]): 3 (A grade of 3 represents an MIC of less than 1 mg/L); MIC A. terreus (grade) (Aspergillus terreus AT4; [15]): 3 (A grade of 3 represents an MIC of less than 1 mg/L)
17 | O=C(Nc1ccc(N2CCN(c3cccc(N(CCO)CCO)n3)CC2)cc1)C(=O)c1c(-c2ccccc2)cc2ccccn12 [Example 86, N-[4-(4-{6-[Bis-(2-hydroxy-ethyl)-amino]-pyridin-2-yl}-piperazin-1-yl)-phenyl]-2-oxo-2-[2-phenyl-indolizin-3-yl)-acetamide] | < 1 | 1 to 10 (≈ 1.65 to 16.5 µM) | < 1 | 1 to 10 (≈ 1.65 to 16.5 µM) | 1 to 10 (≈ 1.65 to 16.5 µM) | 1 to 10 (≈ 1.65 to 16.5 µM) | 
18 | Cc1cc(NC(=O)C(=O)c2c(-c3ccccc3)cc3ccccn23)ccc1OCCCn1ccnc1C(C)C [Example 12, N-{4-[3-(2-Isopropyl-imidazol-1-yl)-propoxy]-3-methyl-phenyl}-2-oxo-2-(2-phenyl-indolizin-3-yl)-acetamide] | < 1 | 1 to 10 (≈ 1.92 to 19.2 µM) | 1 to 10 (≈ 1.92 to 19.2 µM) | > 10 | 1 to 10 (≈ 1.92 to 19.2 µM) | 1 to 10 (≈ 1.92 to 19.2 µM) | 
19 | CCc1ccnc(N2CCN(c3ccc(NC(=O)C(=O)c4c(-c5ccccc5)cc5ccccn45)cc3)CC2)c1 [Example 75, N-{4-[4-(4-ethyl-pyridin-2-yl)-piperazin-1-yl]-phenyl}-2-oxo-2-(2-phenyl-indolizin-3-yl)-acetamide] | < 1 | < 1 | < 1 | < 1 | < 1 | < 1 | 
